Measurements: a melting point compilation (Tetko et al.; mined from patent text by program, amines drawn as free bases though some values may be those of a salt)

SMILES	melting point
CCC(=O)C1=C(O)CC(c2ccc3c(c2)CCCC3)CC1=O (stereo not drawn)	87 °C
O=C(c1ccccn1)c1cc(Br)ccc1-n1cnnc1CCl	147 to 149 °C
OC(CCNCc1ccccc1)(c1ccccc1)c1ccccc1	145 to 146 °C
CCOC(=O)/C(=N\OCc1ccccc1)c1csc(N)n1	133 to 134 °C
CCOc1cc2c(c(Cl)c1O)Sc1ccccc1N2	186 to 189 °C
CN(C)C1=NC(=O)C(Cc2cccc(-c3ccc(O)c(C4(C)CCCCC4)c3)c2)S1 (stereo not drawn)	108 to 110 °C
COc1cccc(C2(Cl)C(C)(C)C2(C)C)c1OC	123 to 125 °C
Cc1c(Cl)c(=O)n2c3c(cc(C(O)(C(F)(F)F)C(F)(F)F)cc13)CCC2	266 to 268 °C
Cc1nc(N)c2nc(CO)n(NC3CCCC3)c2c1C	254 to 256 °C
CCNC(=O)c1c([Si](C)(C)C)ccc(I)c1Cl	128 to 130 °C
COc1ccc2[nH]c3cc(C(=O)OCc4ccccc4)c4c(c3c2c1)C(=O)NC4=O	245 °C
O=[N+]([O-])c1ccc(N(CCO)CCO)cc1	102 to 104 °C
CC(C)Oc1ccccc1C1(N)C(=O)Nc2ccc(Cl)cc21 (stereo not drawn)	193 °C
COC(=O)Nc1nc(-c2ccccc2)c(-c2nc3ccccc3c(=O)n2-c2ccc(C)cc2)s1	> 275 °C
O=c1cc(Oc2ccccc2)c2cc(C(c3ccc(Cl)cc3)n3ccnc3)ccc2[nH]1 (stereo not drawn)	233 °C
COc1cc2c(Nc3cc(OC)c(Cl)cc3Cl)c(C#N)cnc2cc1F	219 to 221 °C
NCc1c(N)cccc1Oc1ccccc1	69 to 71 °C
CCCCc1nc2c(C)cnc(C(=O)O)c2n1Cc1ccc(-c2ccccc2-c2nnn[nH]2)cc1	159 to 161 °C
CC(O)c1cc2c(s1)C(=O)c1sccc1C2=O (stereo not drawn)	170 to 172 °C
CCOC(=O)C(=CNC1CC1)C(=O)c1c(C)c(F)c(F)c(F)c1F	72 to 74 °C

SMILES	melting point
Cc1cc2c(S(C)(=O)=O)nc(CCC(F)(F)F)nc2s1	60 to 61 °C
NS(=O)(=O)NCCc1ccccc1	61.8 to 62 °C
COC(=O)c1ccc(C(=O)c2ccccc2)o1	70 to 73 °C
OCc1ccccc1-c1noc2ccccc12	55 °C
CC(=O)NC1CCN(c2ccc(C#N)c3ccccc23)C1 (stereo not drawn)	154 to 155 °C
N#Cc1c(-c2ccc(Cl)cc2)[nH]c(C(F)(F)F)c1C(F)(F)F	208 °C
O=[N+]([O-])c1ccccc1Cc1n[nH]c(S)n1	239 to 241 °C
CCCCCC(CC(=O)O)c1cc(C(=O)OC)c(OC)cc1OC (stereo not drawn)	106 to 107 °C
COc1ccc(C(=O)O)cc1NC(=O)[C@H](CCCNC(=N)N[N+](=O)[O-])NC(=O)OCc1ccccc1	208 to 209 °C
COC(=O)C12C3C4C1(C(=O)OC)C1(Cl)C2C3(C(=O)OC)C41C(=O)OC (stereo not drawn)	134 to 135 °C
c1cc(OCC2CO2)c2nsnc2c1 (stereo not drawn)	65 to 67 °C
CNC(=O)c1cc(Cl)cc(Cl)c1NC(=O)c1cc(Br)nn1-c1ccccc1Cl	209 to 210 °C
OC(c1ccc(F)cc1)(c1ncc[nH]1)c1ccc(Cl)cc1Cl (stereo not drawn)	194 °C
NC1=Nc2ncccc2OC1	173 to 174 °C
COC(=O)c1cc(N)n(C)n1	101 to 102 °C
CCOC(C)c1cc2c(=O)n(NS(C)(=O)=O)c(=O)[nH]c2cc1C(F)(F)F (stereo not drawn)	105 to 112 °C
CNC(=O)NC(NC(=O)C(Cl)(Cl)Cl)C(Cl)(Cl)Cl (stereo not drawn)	209 to 210 °C
CC(C)OC(=O)c1nc(Cl)sc1Cl	46 °C
COC(=O)NC1(c2ccccc2)CCN(Cc2ccccc2)CC1	121 to 122 °C
COC(C)=CC(=O)NC1CCCC1	94 °C

SMILES	melting point
CCCc1c(C(=O)C(C)C)c2ccc(CC(=O)O)cc2n1Cc1cc2c(cc1Cl)OCO2	81 to 83 °C
COC(=O)c1sc2c(c1N)c1ccccc1c(=O)n2-c1ccccc1Br	214 to 216 °C
Cc1cc(-c2ccc(C(F)(F)F)nc2)nc(-c2cccc(-c3cccc(S(N)(=O)=O)c3)c2)n1	220 °C
N#Cc1cc(F)c(NC(=O)C=C(N)C(F)(F)F)cc1F	127 °C
Cc1ccc(-c2csc(-c3ccc4c(c3)C(C)(C)CCC4(C)C)c2)cc1	135 to 136 °C
N#Cc1ccccc1-c1cccc(-c2cnc3nc(C(F)(F)F)cnn23)c1F	167 to 168 °C
COc1cccc2c1C(=O)c1c(OC)cc(Cc3ccccc3C(O)=S)cc1C2=O	235 to 237 °C
CCCCCCCCCC(=O)Nc1ccc(S(=O)(=O)Nc2nnc(CO)s2)cc1	69 to 70 °C
COC(=O)c1sc2cc(C(F)(F)F)ccc2c1NC(C)=O	204 to 205 °C
Nc1ncnc2c1cnn2C1CCC(OCC(F)c2ccccc2)C(F)C1 (stereo not drawn)	209 to 211 °C
CS(=O)(=O)N1CCC(C(=O)N(CCCN2CCC(Cc3ccccc3)CC2)c2ccccc2)CC1	116 to 118 °C
CC(C)c1ccc(C(=O)C(=O)c2ccccc2)c(C(C)C)c1OS(N)(=O)=O	106 to 109 °C
CON=C1CCCCC1n1nc(-c2c(-c3ccccc3)nn3ccccc23)ccc1=O (stereo not drawn)	85 to 87 °C
O=C(NCc1ncc(C(F)(F)F)cc1Cl)c1ccc(Br)o1	77.8 °C
COc1ccc(C2CNC(=O)O2)cc1OC (stereo not drawn)	114 to 117 °C
CNC(=O)Cn1c(=O)c(=O)[nH]c2cc(C(F)(F)F)c(-n3cccc3)cc21	> 250 °C
O=C1C=C(NC(=O)C(=O)c2cn(Cc3cccc(C(F)(F)F)c3)c3cc([N+](=O)[O-])ccc23)CO1	279 to 281 °C
c1ccc(-n2cc3c(n2)-n2cccc2C3(Cc2ccncc2)Cc2ccncc2)cc1	169 to 170 °C
OC1CSC(Oc2ccc(-c3ccoc3)cc2F)C(O)C1O (stereo not drawn)	155 °C

Other lines, results leading:

melting point	SMILES
135 to 137 °C	CCOC(=O)C(C)c1ccc2oc(Nc3ccc(Cl)cc3)nc2c1 (stereo not drawn)
174 °C	O=S(=O)(c1cccs1)N(CC1CC1)c1cccc2cc(-c3ncc(CO)s3)[nH]c12
182 °C	O=C(O)c1nn(-c2ccc(Cl)cc2Cl)c(-c2ccc(Cl)cc2)c1COCCO
194 to 195 °C	CS(=O)c1ccc(-n2cnc3ccc(-c4nnc(CCc5cccc(C#N)c5)o4)cc32)cc1 (stereo not drawn)
66 to 68 °C	COc1ccc(C(=O)c2cccn2C)cc1
252 to 254 °C	COc1cc2ncnc(N3CCN(C(=O)Nc4ccc(N(C)C)cc4)CC3)c2cc1OC
234 to 236 °C	CCNC(=S)Nc1ccc2[nH]c3cnc(C(=O)OC(C)C)c(CC)c3c2c1
162 °C	COC(=O)c1ccc(C(=O)C2=C(C)C(=O)c3ccccc3C2=O)cc1
169 to 170 °C	CCOC(=O)c1ccc(NC(=O)c2ccc3c(c2)CCC(C)(C)C(=O)N3C)cc1
225 to 226 °C	COc1ccc(C#Cc2ccc3c(Nc4cc(OC)c(Cl)cc4Cl)c(C#N)cnc3c2)cc1
74 to 77 °C	COc1cccc(C(=O)C=Cc2cccc(O)c2)c1
128 to 129 °C	COCCc1nc2c(N)nc3ccccc3c2n1CCCCC(=O)N1CCOCC1
246 °C	CC(=O)N1c2ccc(-c3ccc(C(=O)O)cc3)cc2C(Nc2ccccc2)CC1C (stereo not drawn)
208 to 210 °C	Nc1cc(C(=O)O)cc(OCc2ccccc2)c1Cc1ccccc1
142 to 143 °C	CCCCNC(=O)C(C)n1nnc2ccc(Oc3cc(F)c(C(F)(F)F)c(Cl)c3)cc21 (stereo not drawn)
133 to 135 °C	COc1cccc(Oc2c(NS(=O)(=O)c3ccc(C(C)(C)C)cc3)ncnc2OCCOc2ncc(C(C)O)cn2)c1 (stereo not drawn)
169 °C	Cn1c(CNCC(C)(C)O)cc2cc(NC(=O)c3ccc(OCC4CCOC4)cc3)ccc21 (stereo not drawn)
263 to 265 °C	CC(C)(c1ccccc1)c1ccc(N)c(S(=O)(=O)O)c1
142 to 146 °C	O=C(O)CC1c2ccccc2CCc2cc(Cl)ccc21 (stereo not drawn)
134 to 135 °C	CCOC(=O)N[C@@H]1CCc2ccccc2[C@H]1Nc1ccccc1CO (relative stereo)

melting point	SMILES
136 to 139 °C	COc1ccc(C(C)(C)C)cc1C(=O)c1cc([N+](=O)[O-])ccc1Cl
78 to 79 °C	C[C@@H](NC(=O)c1sc(-c2ccc(Cl)cc2)nc1C(F)(F)F)[C@](O)(Cn1cncn1)c1ccc(F)cc1F
89 to 90 °C	Cc1oc(-c2ccccc2)nc1CCC(=O)c1ccc(CCC2OCCO2)cc1
268 to 270 °C	CC(C)CC(=O)Nc1ccc(-c2ccnc3c(C(=O)c4cccs4)cnn23)s1
200 to 205 °C	Cc1ccc2c(c1)C=Cc1cc(C)ccc1C2c1cn(-c2ccnc(N3CCC[C@H]3C(=O)O)n2)c(=O)[nH]c1=O
125 to 128 °C	COc1cc2c(cc1C(F)(F)F)N(C(=O)Nc1cncc(-c3cnccc3C)c1)CC2
243 to 244 °C	Cc1ccc(C)n1-c1ccc2ccc3[nH]c(=O)c(=O)n(CC(=O)NCc4ccccc4)c3c2c1
189 to 190 °C	CCCCN(c1cccc(-c2ccnc3c([N+](=O)[O-])cnn23)c1)S(=O)(=O)c1ccc(OC)cc1
208 °C	CC(C)C(=O)NCCCC(=O)OC1c2ccccc2C(=O)N1c1ccc2ccc(Cl)nc2n1 (stereo not drawn)
38 to 42 °C	COC(=O)CC(=O)c1ccccc1OCc1ccccc1C
163 to 165 °C	COc1ccc(Cn2c3ccccc3c3c(N)c4c(nc32)CC(c2ccccc2)CC4=O)cc1 (stereo not drawn)
235 °C	Cc1cc2ncc(Nc3ccc(Br)cc3)nc2cc1C
148 to 149 °C	COc1ccc2[nH]c(-c3ccccc3)cc2c1
115 to 117 °C	CCCCNCc1cn(CCC(=O)NC(C)(C)c2ccc(Cl)cc2)cn1
87 to 90 °C	CCCCCCCCNc1ccc(-c2cc3ccccc3o2)cc1
187 °C	CC(=O)OC/C(=C(\C(=O)O)c1ccc(F)cc1)c1ccc(S(C)(=O)=O)cc1
92 to 94 °C	O=C1C(CCO)Oc2ccc(C(F)(F)F)cc2N1Cc1cccc(Cl)c1 (stereo not drawn)
150 °C	COCC1CN(c2ccc3cc(OCc4ccccc4)ccc3c2)C(=O)O1 (stereo not drawn)
157 to 161 °C	CCCN(CCC)C(=O)CC1CN(Cc2ccccc2)c2ccc(OC(=O)Nc3ccc(C(C)C)cc3)cc21 (stereo not drawn)
